Measurements published in patent publication US11174244B2, “Isoquinolin-3-yl carboxamides and preparation and use thereof” (BioSplice Therapeutics, Inc., priority 2016, dated 2021).

Experiments:
secreted Aβ40 peptide = assay: Secreted β-amyloid 40 (Aβ40) peptide assay in APP overexpressing SH-SY5Y-APP cells; format: cell-based; details: Homo sapiens, overnight (16-18 hours), supernatant
Protocol: SH-SY5Y cells were infected with lentivirus to overexpress amyloid (A4) beta precursor protein (APP), hereafter referred to as the SH-SY5Y-APP cells.
SH-SY5Y cells were seeded onto 6-well plates at 5.0×10
[formula] and incubated overnight at 37° C.
Polybrene added for permeability (H9268, Sigma). 24 hours post-transfection, the entire volume from each well was replaced with regular SH-SY5Y medium.
Puromycin-resistant cell were then expanded, harvested and banked. APP-overexpression was controlled by immunoblotting for total APP and Myc-DDK.
The cell assay procedure start 18 h prior to treatment, as SH-SY5Y-APP cells were seeded onto 96-well plates at 2.0×10^4
At this time, designated wells were seeded with SH-SY5Y cells that were seeded and treated with puromycin at 10
Cells were exposed overnight (16-18 hours) in a 37° C. incubator before supernatant was harvested. […] The original plates with seeded cells were tested for cytotoxicity by measure of adenosine triphosphate (ATP) release by adding CellTiter-Glo® diluted 1:4 in distilled water (G7573, Promega) and transferring lysed cells to a completely black 96-well plate to be read with the Cytation3. Plates containing supernatant were spun down at 1200 g for 10 minutes to remove any cellular debris. […]

IL-6 = IL-6 inhibition (HTRF) in LPS-stimulated human peripheral blood mononuclear cells; format: cell-based; details: IL-6 in LPS-stimulated huPBMCs; for value in parentheses after >10 (% inhibition at top concentration): where EC50 >10 μM; for EC50: 22 hours, dose-response starting from 10 μM
Protocol: After 22 hour incubation, a mixture of ani-IL6XL665 and anti-IL-6 Cryptate diluted in reconstitution buffer (Catalog #62IL6PEC, Cisbio Inc., Bedford, Mass.) was added to each well. […] All samples were processed in duplicate. […] EC50 was determined using software generated by Dotmatics Limited (Windhill Bishops Stortford Herts, UK) using the Levenberg-Marquardt 4 parameter fitting procedure with finite different gradients.

[1] = tested on: primary human fibroblasts derived from IPF patients (LL29 cells); assay: Fibrosis assay: αSMA staining in TGF-β1 treated LL29 fibroblasts; format: cell-based; details: for EC50: LL29 fibroblasts treated with TGF-β1, 4 days, αSMA, dose-response 10 μM to […]
Wnt activity = assay: Screening assay for Wnt activity (Sp5-Luc reporter gene assay in SW480 cells); format: cell-based, human; details: 36 to 48 hours
Protocol: The screening assay for Wnt activity is described as follows.
Following incubation, 15 μl of BriteLite Plus luminescence reagent (Perkin Elmer) was added to each well of the 384-well assay plates. The plates were placed on an orbital shaker for 2 min and then luminescence was quantified using the Envision (Perkin Elmer) plate reader.

DYRK1A kinase = DYRK1A kinase (Homo sapiens (Human), UniProt Q13627); assay: DYRK1A kinase activity assay (Ser/Thr 18 peptide Z-lyte, FRET); format: biochemical; details: method calls the values IC50
GSK3β kinase = GSK3β kinase (Homo sapiens (Human), UniProt P49841); assay: GSK3β kinase activity assay (Ser/Thr 09 peptide Z-lyte, FRET); format: biochemical; details: method calls the values IC50
GSK3β kinase, sequence (P49841 whole entry): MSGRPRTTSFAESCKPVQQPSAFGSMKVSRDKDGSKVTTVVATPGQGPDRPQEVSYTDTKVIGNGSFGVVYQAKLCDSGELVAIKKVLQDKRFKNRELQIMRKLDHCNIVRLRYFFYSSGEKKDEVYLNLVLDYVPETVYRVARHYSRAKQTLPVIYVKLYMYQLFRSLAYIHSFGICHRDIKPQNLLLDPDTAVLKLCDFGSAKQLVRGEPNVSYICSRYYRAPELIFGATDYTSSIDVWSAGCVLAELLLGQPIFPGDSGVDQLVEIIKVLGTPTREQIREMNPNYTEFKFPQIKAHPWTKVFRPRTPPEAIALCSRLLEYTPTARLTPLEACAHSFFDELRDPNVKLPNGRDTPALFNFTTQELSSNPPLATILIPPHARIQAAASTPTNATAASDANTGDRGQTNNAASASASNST

[2] = tested on: Tau phosphorylation at Ser396 (pSer396); assay: Tau phosphorylation assay (pSer396 ELISA / western blot) in SH-SY5Y cells; format: cell-based, human; details: overnight (16-18 h) exposure
Protocol: Two days before treatment, cells were seeded onto 96 well plates at 5×10^4 cells/well.
Wells were visually checked for cell death or change in morphology and supernatants were tested for cytotoxicity by measurement of lactate dehydrogenase release (LDH, CytoToxOne kit, Promega) if necessary.
Cells were lysed with RIPA buffer complemented with phosphatase and protease inhibitors then lysates were spun down at 12,000 g for 10 min to remove any cellular debris. Lysates are then either directly tested for pSer396 by ELISA (Life Technology, Kit KHB7031) or loaded on NuPage Bis-Tris gels for western blot analysis. Colorimetric detection of ELISA signal is performed by Cytation3 plate reader (Biotek) and the chemiluminescence signal for HRP-linked antibodies used in western blotting is detected using a Carestream Image Station. The same pSer396 antibody is used for detection of pTau in both assays.

[3] = tested on: SW480 colon carcinoma cells; assay: Cell viability assay (CellTiter-Glo) in SW480 cells; format: cell-based, human; details: four days incubation

With `Cn1cncc1-c1ccc2cnc(NC(=O)C3C(C)(C)C3(C)C)cc2c1` [Compound 269, 2,2,3,3-Tetramethyl-N-[6-(3-methylimidazol-4-yl)-3-isoquinolyl]cyclopropanecarboxamide] the IC50 (secreted Aβ40 peptide) was > 10000 nM.

In the case of `Cn1cc(-c2ccc3cnc(NC(=O)C4C(C)(C)C4(C)C)cc3c2)nn1` [Compound 277, 2,2,3,3-Tetramethyl-N-(6-(1-methyl-1H-1,2,3-triazol-4-yl)isoquinolin-3-yl) cyclopropane-1-carboxamide], the “value in parentheses after >10 (% inhibition at top concentration)” value (“value … (% inhibition at top concentration)” below) (IL-6) is reported as 4.0%.

With `Cn1cc(-c2ccc3cnc(NC(=O)CN4C5CCC4COC5)cc3c2)cn1` [Compound 347, 2-(3-Oxa-8-azabicyclo[3.2.1]octan-8-yl)-N-(6-(1-methyl-1H-pyrazol-4-yl)isoquinolin-3-yl)acetamide] the “value … (% inhibition at top concentration)” value (IL-6) was 4.5%.

`Cn1cc(-c2ccc3cnc(NC(=O)CN4C5CCC4CC5)cc3c2)nn1` [Compound 513, 2-(7-Azabicyclo[2.2.1]heptan-7-yl)-N-(6-(1-methyl-1H-1,2,3-triazol-4-yl)isoquinolin-3-yl)acetamide] was tested, and the “value … (% inhibition at top concentration)” value (IL-6) was 14.5%.

For `Cc1nnc(-c2ccc3cnc(NC(=O)CN4C5CCC4CC5)cc3c2)s1` [Compound 959, 2-(7-Azabicyclo[2.2.1]heptan-7-yl)-N-(6-(5-methyl-1,3,4-thiadiazol-2-yl)isoquinolin-3-yl)acetamide], the “value … (% inhibition at top concentration)” value (IL-6) was 6.1%.

`Cc1nnc(-c2ccc3cnc(NC(=O)CN4C5CCC4COC5)cc3c2)s1` [Compound 962, 2-(3-Oxa-8-azabicyclo[3.2.1]octan-8-yl)-N-(6-(5-methyl-1,3,4-thiadiazol-2-yl)isoquinolin-3-yl)acetamide] was tested, and the “value … (% inhibition at top concentration)” value (IL-6) was 9.6%.

For `CC(C)CN1CCC[C@@H](C(=O)Nc2cc3cc(-c4cnn5c4CN(CCF)CC5)ccc3cn2)C1` [Compound 1002, (R)—N-(6-(5-(2-Fluoroethyl)-4,5,6,7-tetrahydropyrazolo[1,5-a]pyrazin-3-yl)isoquinolin-3-yl)-1-isobutylpiperidine-3-carboxamide], the “value … (% inhibition at top concentration)” value ([1]; LL29 fibroblasts treated with TGF-β1, where EC50 >10 μM) was 27.5%.

`Cn1cc(-c2ccc3cnc(NC(=O)C45CCN(CC4)CC5)cc3c2)cn1` [Compound 1071, N-(6-(1-Methyl-1H-pyrazol-4-yl)isoquinolin-3-yl)quinuclidine-4-carboxamide] was tested, and the “value … (% inhibition at top concentration)” value (IL-6) was 8.8%.

With “N-(6-(1-Methyl-1H-pyrazol-4-yl)isoquinolin-3-yl)-2-(6-azaspiro[2.5]octan-6-yl)acetamide [Compound 296]” the EC50 (Wnt activity) was 3480 nM, the EC50 (DYRK1A kinase) was 14.3 nM and the EC50 (GSK3β kinase) was 80 nM. For the same compound, the EC50 [2] was 978 nM, the EC50 [3] was 3460 nM and the EC50 [1] was 1960 nM. The EC50 (IL-6) was 1580 nM.

With “N-(6-(1-Methyl-1H-pyrazol-4-yl)isoquinolin-3-yl)-2-(pyrrolidin-1-yl-2,2,5,5-d4)acetamide [Compound 315]” the EC50 (Wnt activity) was 1590 nM, the EC50 (DYRK1A kinase) was 12.3 nM and the EC50 (GSK3β kinase) was 44 nM. For the same compound, the EC50 [2] was 346 nM, the EC50 [3] was 1250 nM and the EC50 [1] was 1820 nM. It also gave an EC50 (IL-6) of 819 nM.
